# Results from patent US5374623A, “Cysteine protease inhibitors effective for in vivo use” (Prototek, Inc., priority 1992, dated 1994).
# Key:
# [1] = test system: DBA/Lac mice injected with type II chick collagen; test: Type II collagen arthritis in mice, oral 10 mg/kg/day (Example 13); type: in vivo; conditions: gavage 10 mg/kg/day, day 21 to day 49
# Protocol: DBA/Lac mice were injected with 200 μg of type II chick collagen emulsified in Freund's complete adjuvant on day 0 and on day 21. Mu-Phe-HPhe-O-Ph was suspended in an ethanol solution which was then diluted to 10% (aq) and administered by gavage at a dose of 10 mg/kg/day from day 21 until sacrifice at day 49. The severity of joint inflammation was evaluated grossly at seven day intervals beginning on day 21. The effect of oral administration of Mu-Phe-HPhe-O-Ph on the severity of bone lesions in adjuvant-induced arthritis wa determined by evaluating osseous mineralization, periostat proliferation, bone erosion, joint space narrowing and osseous fragmentation. All lesions were scored on a scale of 0 (normal architecture) to 3 (severe or marked changes). Values calculated were means values ±1 std. error of the mean. […] The effect of oral administration of Mu-Phe-HPhe-O-Ph on the histological aspects of adjuvant-induced arthritis was determined by evaluating inflammation, focul ulcers, tibiotarsal joint cartilage destruction, bone destruction and periosteal proliferation. Inflammation was scored on a scale of 0 (no inflammation) to 3 (severe) based on the extent of edema and cell infiltration. Focul ulcer cartilage destruction was measured as the percent of articular cartilage surfaces with focal destruction which exposed underlying subchondral bone. […]
# [2] = test system: bone resorption; test: In vivo bone resorption by urinary 14C-tetracycline excretion in rats
# Protocol: Treatment of Osteo Arthritis with Mu-Phe-HPhe-O-Ph. The skeletons of young growing rats were radioactively labelled by injections with ^14 C-tetracycline over a 10 day period. The amount of bone resorption was then determined each day as the amount of radioactivity excreted in the urine. After 10 days of control excretion, test compounds were administered for three days subcutaneously and their effects on the daily excretion of tetracycline were determined. Tested compounds were dissolved in DMSO/PEG at a concentration of 25 mg/ml and were injected once per day subcutaneously in a volume of 2 ml/kg. Treatment of Osteo Arthritis with Mu-Leu-HPhe-O-Ph. The skeletons of young growing rats were radioactively labelled by injections with ^14 C-tetracycline over a 10 day period. The amount of bone resorption was then determined each day as the amount of radioactivity excreted in the urine. After 10 days of control excretion, test compounds were administered for three days subcutaneously and their effects on the daily excretion of tetracycline were determined. Tested compounds were dissolved in DMSO/PEG at a concentration of 25 mg/ml and were injected once per day subcutaneously in a volume of 2 ml/kg.
# [3] = test system: experimental gingivitis; test: Experimental gingivitis in human subjects; type: in vivo; conditions: twenty human subjects, inhibitor placed at test sites and sealed with Coe-pak for a week, blind, placebo control
# Description: Treatment of Gingivitis with Mu-Phe-HPhe-O-Ph. The effect of the inhibitor on gingival inflammation was studied by investigating its ability to prevent the development of experimental gingivitis. Twenty human subjects with healthy gingiva and no periodontal disease were recruited. The subjects received oral hygiene instruction and scaling prior to baseline. The test sites were the mesibuccal crevices on the upper first and second molars and premolars (bicuspids). Acrylic shields were made to cover the gingival margins of these teeth and were worn during oral hygiene to prevent brushing of the test and control sites. During the test period of three weeks the subjects were told to brush only the lower teeth and upper anteriors and to ear the shields during brushing. The left side was used as the test side and the right was the control side in 10 subjects. The sides were reversed in the other 10 subjects so the subjects could act as their own controls. Thirty second GCF samples were taken prior to clinical measurements at baseline and at 1, 2, 3 and 4 weeks. These were assayed for cathepsins B and L-like activities. Clinical measurements of gingival index (GI), gingival bleeding index (GBI) and plaque index (PLI) were taken at test and control sites at zero, one, two, three and four weeks. […]
compound,measurement,setting,value
"O=C(O)Cc1ccccc1OCC(=O)[C@H](CCc1ccccc1)NC(=O)[C@H](Cc1ccccc1)NC(=O)N1CCOCC1 [Mu-Phe-HPhe-O-Ph, (4-morpholinylcarbonyl)-L-phenylalanyl-L-homophenylalanyl-(2-carboxymethyl)phenoxymethyl ketone]",histological aspects values vs control animals,"[1]; inflammation, focul ulcers, tibiotarsal joint cartilage destruction, bone destruction, periosteal proliferation",significantly (p<0.05) lower than the values of control animals
same,bone lesion severity values vs control animals,"[1]; osseous mineralization, periostat proliferation, bone erosion, joint space narrowing, osseous fragmentation, scale 0-3",significantly (p<0.05) lower than the values of control animals
same,inhibition of bone resorption in vivo as measured by tetracycline excretion,"[2]; subcutaneous once per day for three days, 25 mg/ml in DMSO/PEG, 2 ml/kg",as great as that of a maximal dose of calcitonin
same,time of maximum effect after dosing commenced,"[2]; subcutaneous once per day, 25 mg/ml, 2 ml/kg",24 h
same,findings at the sites of injection at end of experiment,"[2]; subcutaneous, DMSO/PEG, three days, histology: inflammation of subcutaneous fat, tissue necrosis",lesions were visible at the sits of injection
same,"GI, GBI, PLI and cysteine proteinase levels at test vs control sites",[3],reduced all parameters tested at the test sites
